Results on one compound are retold here after patent US20160185717A1, “COMPOUNDS WITH ANTIBACTERIAL ACTIVITY” (FUNDACIÓN MEDINA. CENTRO DE EXCELENCIA EN INVESTIGACIÓN DE …, priority 2013, published 2016).

One test deals with E. coli ATCC 25922. In words: Broth microdilution MIC. The format is cell-based, Escherichia coli. The note with it: E. coli ATCC 25922, wild type. As to the method:
(§1) Antibacterial activity of compounds MDN-0057, MDN-0058, MDN-0059 and MDN-0060 was evaluated using the broth microdilution methodology. This method is used to determine minimum inhibitory concentrations (MICs) which are defined as the lowest concentration of an antimicrobial compound that will inhibit the visible growth of a microorganism after overnight incubation.
(§2) In the microbroth dilution assay, microorganisms were selected by streaking bacteria culture from a cryovial into Mueller Hinton II (MHII) agar plate(s) and incubate overnight at 37° C. Thereafter, 3 to 5 characteristic fresh colonies were selected and suspended in 25 mL of MHII broth media for 2 hours shaking at 220 rpm. The 2 hour broth cultures were adjusted to an optical density of 0.111 at 660 nm and then diluted to 1:100 in order to obtain assay inoculums.
(§3) The four compounds evaluated were serially diluted in 100% DMSO with a dilution factor of 2 to provide 10 compound concentrations starting at 8 mg/mL.
(§4) For the assays, 90 μL/well of the appropriated diluted inoculum were mixed with 1.6 μL/well of each compound concentration and 8.4 μL/well of MHII broth media, resulting in an additional dilution of these compounds to yield concentrations in the assay wells from 128 μg/mL to 0.25 μg/mL. After that, the assay plates were read in a Tecan Ultraevolution spectrophotometer at 612 nm for T0 (zero time). Then, the plates were statically incubated at 37° C. for 20 hours. After incubation, they were shaken in a DPC Micromix-5 and read again for Tf (final time). Percentage of growth inhibition was calculated using the following normalization:
(§5) % Inhibition=[1-[(TfSample-T0Sample)−(TfBlank-T0blank)/(TfGrowth-T0Growth)−(TfBlank-T0blank)]×100. • Where, • T0 Sample=the absorbance of the strain growth in the presence of sample measured at zero time (before incubation). • Tf Sample=the absorbance of the strain growth in the presence of sample measured at final time (after incubation) • T0 Growth=the absorbance of the strain growth in the absence of sample measured at zero time (before incubation). • Tf Growth=the absorbance of the strain growth in the absence of sample measured at final time (after incubation). • T0 Blank=the absorbance of the broth medium (blank) measured at zero time (before incubation). • Tf Blank=the absorbance of the broth medium (blank) measured at final time (after incubation).
In general terms: Dilution methods test growth across graded concentrations, often in twofold steps.

Test [1] has as its system cell wall synthesis in E. coli acrAB::Tn903. Briefly: Macromolecular labeling assay, cell wall synthesis. The test is classed as cell-based, Escherichia coli. How it is done:
The macromolecular synthesis assay, in which the inhibition of the intracellular building blocks of macromolecules are measured, provides guidance for understanding the broad MOA of compounds
The inhibitory effect on synthesis of macromolecules in the lipid, cell wall, DNA, RNA and protein synthesis pathways was determined in growing cells of E. coli acrAB::Tn903. Cells were grown at 35° C. overnight on Trypticase Soy agar, and this culture was used to inoculate 15 ml of Mueller Hinton broth II (MHB). The culture was grown to early exponential growth phase (OD600=0.2 to 0.3) while incubating in a shaker at 35° C. and 200 rpm.
Cells in early exponential phase were exposed to MDN-0057, and their incorporation of radioactive precursors in each pathway was determined. […]
Cell wall synthesis: Bacterial cells in early exponential growth phase were transferred to M9 minimal medium and added to 1.5 ml eppendorf tubes (100 μl/tube) containing various concentrations of MDN-0057 or control antibiotics (2.5 μl) at 40× the final concentration in 100% DMSO or dH2O as described above. […] After washing three times with 5 ml of 0.1% SDS, the filters were rinsed two times with 5 mL of dH2O, allowed to dry, and then counted using a Beckman LS3801 liquid scintillation counter.

In a further test the test system is K. pneumoniae 847. In words: Broth microdilution MIC. The test is classed as cell-based, Klebsiella pneumoniae. The note with it: K. pneumoniae 847, Clinical isolate. How it is done:
as §1, §2, §3, §4, §5

Another test relates to K. pneumoniae 21. In words: Broth microdilution MIC. The format is cell-based, Klebsiella pneumoniae. The note with it: K. pneumoniae 21, permeable strain. As to the method:
as §1, §2, §3, §4, §5

Test [2] deals with Escherichia coli acrAB::Tn903 (CB-219). In words: Micro RI (resistance) bioassay on E. coli CB-219. The format is cell-based. As to the method:
The frequency of resistance to MDN-0057 and MDN-0058 was assessed on Escherichia coli acrAB::Tn903 (CB-219) and wild type (WT) Acinetobacter baumannii (ATCC BAA-747). For this purpose, the Minimum Inhibitory Concentration of MDN-0057 versus each strain was determined by broth microdilution as described in Clinical Laboratory Standards Institute publication M07-A9, Vol. 32, No. 2., “Methods for Dilution Antimicrobial Susceptibility Tests for Bacteria that Grow Aerobically; Approved Standard—Ninth Edition,” January 2012. Six-well plates containing Mueller Hinton II agar (5 mL per well) were prepared with MDN-0057 or MDN-0058 at concentrations 4-fold and 8-fold above the MIC. Cultures were grown to late log phase and spread on the agar. Plates were incubated at 37° C. and examined after one and two days of incubation.
Six to eight isolates from each species were obtained by re-streaking growth from the plates on antibiotic-free tryptic soy agar plates, and MICs of MDN-0057 versus the isolates were subsequently determined. MICs of the E. coli isolates were elevated at least 16-64-fold relative to their parent strain, CB-219.

What is called MIC is the lowest concentration that inhibits growth of the organism.

≈ marks a conversion by molar mass, not a printed value.

`[C-]#[N+]C(=C)C(Cc1ccc(OC)cc1)([N+]#[C-])C1CC(O)CCC1OC(=O)CO` (stereo not shown) [MDN-0057]: the MIC in the test on E. coli ATCC 25922 was 16 to 64 µg/mL; in the test with K. pneumoniae 847, 64 µg/mL (≈ 166 µM); in the test on K. pneumoniae 21 it was 0.25 µg/mL (≈ 0.65 µM); in test [2] (E. coli_219, Micro RI, Isolate #1_4X), 0.25 µg/mL (≈ 0.65 µM); in test [2] (E. coli_219, Micro RI, Isolate #2_8X), 0.25 µg/mL (≈ 0.65 µM); in test [2] (E. coli_219, Micro RI, Isolate #3_4X), 0.25 µg/mL (≈ 0.65 µM). The MIC is 0.25 µg/mL (≈ 0.65 µM) in test [2] (E. coli_219, Micro RI, Isolate #4_4X); 0.25 µg/mL (≈ 0.65 µM) in test [2] (E. coli_219, Micro RI, Isolate #5_8X); 0.125 to 0.5 µg/mL in test [2] (E. coli_219, Parent). The “Maximum inhibition of cell wall synthesis” value in test [1] (at 2 to 8-fold the MIC, [14C] N-acetylglucosamine, apparent dose-response) is “ca. 75%”. The “Inhibition of Macromolecular Synthesis (FIG. 1 legend)” value in test [1] (at 2× MIC, strain E. coli acrAB::Tn903) is “signal for Cell Wall Biosynthesis”. For the same compound, the “Growth on agar containing compound (frequency of resistance)” value in test [2] (E. coli acrAB::Tn903, 4-fold and 8-fold above the broth MIC, after 48 hours of incubation) is reported as “pinpoint colonies that were too numerous to count”. The “Elevation of MICs of the E. coli isolates relative to parent strain CB-219” value in test [2] (six to eight isolates re-streaked from the plates) was 16-64 fold.
